{
  "source": "patent US20230242947A1",
  "about": "“GENETICALLY ENGINEERED RHODOPSEUDOMONAS PALUSTRIS” (priority 2021, published 2023)",
  "key": {"[1]": {"tested_on": "phiC31 integrase (Streptomyces phage phiC31?)", "experiment": "cell_activity"}, "[2]": {"tested_on": "WT TIE-1 with an empty vector (pRhokS-2)", "assay_type": "cell-based, Rhodopseudomonas palustris TIE-1", "settings": "for Doubling time: WT with pAB423; for effect on TIE-1 growth of the amount produced in the study: amounts produced by the engineered strains (n-butanol up to 4.98 mg/L; acetone up to about 290 mg/L)", "description": "Toxicity Study. WT TIE-1 with an empty vector (pRhokS-2) was used to test the tolerance of TIE-1 for acetone and n-butanol. To test the tolerance, 0, 0.25, 0.5, 1, or 2% n-butanol (v/v), or 0, 0.1, 0.25, 0.5, 1, or 2% acetone (v/v), was added to FW media with acetate (10 mM). Growth was monitored by recording OD660 overtime."}},
  "note": "Read-outs that look alike come from different tables or passages of the source.",
  "data": [
    {"compound": "phiC31 attB site (in TIE-1 genome at glmUSX-recG locus)", "values": [
      {"measurement": "activity", "setting": "[1]; attB x attP integration of mcherry in R. palustris TIE-1, editing efficiency 100% for genome-based system and constitutive plasmid system, about 80% for …", "value": 100, "unit": "%"}
    ]},
    {"compound": "phiC31 attP site (on suicide plasmid pWB081/pWB088)", "values": [
      {"measurement": "activity", "setting": "[1]; attP donor plasmid partner of attB, same integration assay, about 80% with inducible plasmid system", "value": 100, "unit": "%"}
    ]},
    {"compound": "CCCCO", "note": "[n-butanol]", "values": [
      {"measurement": "Doubling time", "setting": "[2]; n-butanol 2025 mg/L in media", "value": 20.091, "unit": "h"},
      {"measurement": "Doubling time", "setting": "[2]; n-butanol 4050 mg/L in media", "value": "No growth"},
      {"measurement": "Doubling time", "setting": "[2]; n-butanol 8100 mg/L in media", "value": "No growth"},
      {"measurement": "Doubling time", "setting": "[2]; n-butanol 16200 mg/L in media", "value": "No growth"},
      {"measurement": "effect on TIE-1 growth of the amount produced in the study", "setting": "[2]", "value": "does not limit the growth of TIE-1"},
      {"measurement": "lowest inhibitory concentration of n-butanol for TIE-1", "setting": "[2]; toxicity assay, FW media with acetate (10 mM)", "value": 4050, "unit": "mg/L"}
    ]},
    {"compound": "CC(C)=O", "note": "[acetone]", "values": [
      {"measurement": "Doubling time", "setting": "[2]; acetone 1960 mg/L in media", "value": 6.74, "unit": "h"},
      {"measurement": "Doubling time", "setting": "[2]; acetone 3920 mg/L in media", "value": 5.82, "unit": "h"},
      {"measurement": "Doubling time", "setting": "[2]; acetone 7840 mg/L in media", "value": 5.56, "unit": "h"},
      {"measurement": "Doubling time", "setting": "[2]; acetone 15680 mg/L in media", "value": 4.88, "unit": "h"},
      {"measurement": "effect on TIE-1 growth of the amount produced in the study", "setting": "[2]", "value": "does not limit TIE-1's growth"}
    ]}
  ]
}
